As to `CCNC(=O)NC(=O)c1ccccc1`, the log partition coefficient (logP) was determined as 1.92. The result for `O=C(NC(=O)c1c(F)cccc1F)Nc1ccc(F)cc1` reads 3.2; that for `O=C(NC(=O)c1c(F)cccc1F)Nc1ccc(Cl)cc1`, 3.88. `CNC(=O)NC(C)=O`: the log partition coefficient (logP) was -0.7. In turn, `CC(=O)NC(=O)Nc1ccccc1` gave a logP of 1.6. Take `Cc1cccc([N+](=O)[O-])c1C(=O)NC(=O)Nc1ccc(Cl)cc1`: the logP stood at 3.75. To `CNC(=O)NC(=O)c1ccccc1` belongs 1.27; to `CNC(N)=O`, -1.4; to `O=C(NC(=O)c1ccccc1)Nc1ccccc1`, 3.39. The result for `CCNC(=O)NC(C)=O` reads -0.01.

As for `COc1ccccc1C(=O)NC(=O)Nc1ccc(Cl)cc1`, the logP was determined as 4.35.

As usually defined, the logP is the decadic logarithm of the partition coefficient of the neutral form, usually between octanol and water. Read a high logP as higher lipophilicity.

The record behind these values is the OPERA property sets (Mansouri et al. 2018).
